Laboratory results as given in patent publication US12435025B2, “Triphenylphosphonium-tethered salicylamine derivatives” (MTI BIOTECH, INC., priority 2019, dated 2025).
Read-outs that look alike come from different tables or passages of the source.

Assays:
[1] = system: HepG2 cells; details: cited from earlier work
[2] = Single ascending dose study: safety and tolerability (adverse events, ECG, vital signs, laboratory parameters); format: in vivo, human
Excerpt: (§1) Healthy male and non-pregnant female volunteers over 18 years of age were eligible to participate. Subjects were not permitted to take any medications 2 weeks prior to or during the study. Exclusion criteria included known cardiac, kidney, or hepatic disease; presence of diseases that could manifest morbidity or symptoms/signs that could confound interpretation of the study results; the need to discontinue any drug administered as standard of care treatment; and the unwillingness or inability to use approved birth-control methods.
(§2) This study was an open-label, single ascending dose study designed to assess pharmacokinetics, safety, and tolerability of single doses of 2-hydroxybenzylamine acetate. A 3+3 clinical trial design with a modified Fibonacci sequence dosing scheme^14 was used with a starting dose of 50 mg; thereafter, dosages were increased to 100, 200, 330, 550, and 825 mg. These doses of 2-hydroxybenzylamine acetate correspond to 34, 68, 136, 224, 373, and 560 mg 2-hydroxybenzylamine. Each dose escalation was initiated only after reviewing safety data from all subjects receiving the previous dose.
(§3) Subjects were admitted to the Vanderbilt University Clinical Research Center and remained on the unit for 24 hours after administering 2-hydroxybenzylamine acetate orally in capsules to participants. […] Subjects were monitored at protocol-defined intervals for 24 hours after administration of 2-hydroxybenzylamine. Safety assessments included vital signs (heart rate, respiration rate, blood pressure, and SpO2), clinical laboratory parameters (blood biochemistry, hematology, and urinalysis), 12-lead ECGs, and potential adverse event assessments. All adverse events were recorded, regardless of whether they were considered study-related.

[3] = mice, drinking water, 1 to 10 grams per liter; cited from earlier work
[4] = system: sodium channel; details: cited from earlier work
[5] = Single ascending dose study: plasma pharmacokinetics of 2-hydroxybenzylamine; format: in vivo, human; details: for Cmax / Tmax / AUC(0-inf) / half-life: both sexes, human, plasma; for AUC(0-inf): read-out: AUC (zero to infinity)
Excerpt: as §1
2-Hydroxybenzylamine (as the acetate salt, CAS 1206675-01-5) was obtained from TSI (China) Co., Ltd. (Shanghai, China). A commercial production lot was used (Lot 16120312). Our laboratory verified the purity of the commercial lot to be >99% via HPLC and NMR spectroscopy. Hard gel capsules (Capsugel, Jiangsu, China) containing 50, 110, and 412.5 mg of 2-hydroxybenzylamine acetate (corresponding to 34, 75, and 281 mg 2-hydroxybenzylamine) were prepared by TSI (China) Co., Ltd. Determinations of average fill weight, uniformity of weight, disintegration, 2-hydroxybenzylamine content, acetate content, and microbial and analytical tests were within all specification limits.
as §2, §3
Blood samples for pharmacokinetic analyses were collected at baseline, 0.25, 0.5, 1, 2, 6, 4, 8, and 24 hours after 2-hydroxybenzylamine acetate administration for all dose levels. The 0.25-hour sample was only collected for dosages≤200 mg, and the 6-h sample was only collected for dosages≥330 mg.
[^2H4]-2-hydroxybenzylamine, prepared by Dr. Venkataraman Amarnath as previously described^11, was used as an internal standard. An internal standard solution (100 ng/mL) of ([^2H4]-2-hydroxybenzylamine was prepared in acetonitrile and added to all standards, quality control samples, and patient samples. Standard and quality control samples of 1 mg/mL 2-hydroxybenzylamine were prepared in water. Eight standard curve samples (5, 10, 20, 100, 200, 1000, 2000, and 5000 ng/mL) were prepared with blank human plasma (Bioreclamation, Westbury, NY). In addition, three quality control samples (15, 300, and 3000 ng/mL) were prepared in blank human plasma. Plasma samples were allowed to thaw at room temperature and then vortexed. Internal standard solution (400 μL) and 100 μL of either plasma, quality controls, or standards were added and mixed in a protein precipitation filter 96-well plate (Phenomenex, Torrance, CA). The solution was eluted into a 96-well plate using a positive pressure manifold and then dried under nitrogen gas at 40° C. The samples were then reconstituted in 97/3 v/v water/acetonitrile with 10 mM ammonium formate for analysis. […]

[6] = system: paws injected with carrageenan; details: mice, intraperitoneally 200 mg/kg; cited from earlier work
[7] = system: γKA protein adducts; details: compared with PM; cited from earlier work
[8] = Half-life of SA in the blood; format: in vivo; details: estimated
[9] = in vivo; cited from earlier work
[10] = single oral dose 50 mg 2-hydroxybenzylamine acetate, mean, n = 3
[11] = single oral dose 100 mg 2-hydroxybenzylamine acetate, mean, n = 3

For `Cc1ncc(CO)c(CN)c1O` [PM, pyridoxamine], the “protection of HepG2 cells from cytotoxicity induced by hydrogen peroxide” value [1] is given as “ineffective”.

With `NCc1ccccc1O` [2-hydroxybenzylamine] the “serious adverse events or deaths” value ([2]; all doses) was “no serious adverse events or deaths”, the “participants who reported at least 1 adverse event” value ([2]; both, human, in vivo, 24 h) was 28% and the “subjects with frequent urination (most common adverse event)” value ([2]; both, human, in vivo, 24 h) was 11%. For the same compound, the “adverse event frequency or severity versus dose” value ([2]; in vivo) was “no dose-dependent increase”, the “changes in ECG recordings, vital signs, or laboratory parameters” value ([2]; in vivo) was “No clinically significant changes” and the “intensity of adverse events” value ([2]; in vivo) was “mild”. The study-related adverse events ([2]; in vivo) was “No adverse events were determined to be study-related”, the tissue concentrations [3] was 10 to 500 µM and the “protection of sodium channel function inhibited by γKA or oxidants” value [4] was “protects”. It also gave a Cmax [5, 10] of 90 ng/mL, a Tmax [5, 10] of 1.33 h and an AUC(0-inf) [5, 10] of 396 ng·h/mL. It also gave a half-life ([5]; single oral dose 50 mg 2-hydroxybenzylamine acetate, mean, n = 3, read-out: Half-life (converted)) of 2.04 h, a Cmax [5, 11] of 156 ng/mL and a Tmax [5, 11] of 1.33 h. For the same compound, the AUC(0-inf) [5, 11] was 622 ng·h/mL, the half-life ([5]; single oral dose 100 mg 2-hydroxybenzylamine acetate, mean, n = 3, read-out: Half-life (converted)) was 2.33 h and the half-life ([5]; single oral doses, overall mean, read-out: mean half-life (converted)) was 2.1 h. The AUCextrap [5, 10] was 9.1%, the AUCextrap [5, 11] was 11.2% and the “Cmax and AUC versus dose” value ([5]; single oral doses 50-825 mg 2-hydroxybenzylamine acetate) was “dose-dependent changes”. For the same compound, the “edema in paws injected with carrageenan” value [6] was “decreased edema”, the “inhibition of γKA protein adducts in cells” value [7] was “significantly better inhibitor of γKA protein adducts in cells than PM” and the half-life [8] was ~2 h. The “protection of HepG2 cells from cytotoxicity induced by hydrogen peroxide” value [1] was “protects”.

For `O=C(O)c1ccccc1O` [salicylic acid], the “salicylate in the blood bound to protein” value [9] is listed as 80-90%.

In the case of `CC(=O)O.NCc1ccccc1O` [2-Hydroxybenzylamine acetate, 2-hydroxybenzylamine acetate], the Abdominal bloating ([2]; both, human, in vivo, 24 h) is reported as 1 n (%), the Any event ([2]; both, human, in vivo, 24 h) is reported as 5 n (%) and the Frequent urination ([2]; both, human, in vivo, 24 h) is reported as 2 n (%). The Headache ([2]; both, human, in vivo, 24 h) was 1 n (%), the Itchy throat ([2]; both, human, in vivo, 24 h) was 1 n (%) and the Rash ([2]; both, human, in vivo, 24 h) was 1 n (%). The Sleepiness ([2]; both, human, in vivo, 24 h) was 1 n (%).
